Results taken from patent US20260256140A1, “BIPHENYL COMPOUNDS CONTAINING SUBSTITUTED SULFIDE (SULFOXIDE) GROUPS AND USES THEREOF” (METISA BIOTECHNOLOGY CO., LTD, priority 2021, published 2026).

Legend:
Assay type in all cases: in vivo
Mythimna separata = test: Activity against Mythimna separata, Airbrush spray on maize leaf pieces; settings: 500 mg/L, 3 days after administration, 3rd-instar larvae
Experimental: Insecticidal activity determination experiments were conducted on several insects using the compound of the present invention and control compounds KC1, KC2, and KC3. Determination methods were described below. The compounds to be determined were each dissolved in a mixed solvent of acetone/methanol (1:1), and diluted using water containing 0.1% (wt) tween-80 to desired concentrations. With Mythimna separata and Plutella xylostella as targets, Airbrush spray method was adopted for activity determination. Determination Method: maize leaves were cut into 2 cm leaf pieces, and the front and back of each leaf piece were sprayed under an Airbrush spray treatment pressure of 10 psi (approximate to 0.7 kg/cm^2) and with a spray volume of 0.5 mL. After drying in the shade, 10 3rd-instar larvae were inoculated for each treatment, and each treatment was repeated for 3 times. After the treatment, the leaf pieces were put into an observation chamber at 25° C. and with a relative humidity of 60% to 70%, and the number of living larvae was investigated 3 days after the administration of the compounds, and the death rates were calculated.

Plutella xylostella = test: Activity against Plutella xylostella, Airbrush spray on cabbage leaf discs; settings: 500 mg/L, 3 days after administration, 3rd-instar larvae
Experimental: Insecticidal activity determination experiments were conducted on several insects using the compound of the present invention and control compounds KC1, KC2, and KC3. Determination methods were described below. The compounds to be determined were each dissolved in a mixed solvent of acetone/methanol (1:1), and diluted using water containing 0.1% (wt) tween-80 to desired concentrations. With Mythimna separata and Plutella xylostella as targets, Airbrush spray method was adopted for activity determination. Determination Method: cabbage leaves were formed into leaf discs having a diameter of 2 cm using a puncher, and the front and back of each leaf disc were sprayed under an Airbrush spray treatment pressure of 10 psi (approximate to 0.7 kg/cm^2) and with a spray volume of 0.5 mL. After drying in the shade, 10 3rd-instar larvae were inoculated for each treatment, and each treatment was repeated for 3 times. After the treatment, the leaf discs were placed into an observation chamber at 25° C. and with a relative humidity of 60% to 70%, and the number of living larvae was investigated 3 days after the administration of the compounds, and the death rates were calculated.

Tetranychus cinnabarinus = test: Greenhouse acaricidal activity determination on Phaseolus vulgaris seedlings; settings: 3 days after administration, parallel comparison
Experimental: Greenhouse acaricidal activity determination was carried out on the compounds of the present invention. A determination method was described below. […] Two true leaves of Phaseolus vulgaris seedlings were inoculated with adult Tetranychus cinnabarinus and a basic number was investigated. An entire seedling was then sprayed using a hand-held sprayer. Each treatment was repeated for 3 times. After the treatment, the seedlings were placed into a standard observation chamber, and the number of living mites was investigated 72 hours later, and the death rates were calculated. Parallel comparison experiments on acaricidal activity were conducted for Tetranychus cinnabarinus using the compounds 1.22, 1.23, and 1.24 and control compounds (3 days after the administration of the compounds), and the determination method was as described above; and the results were shown in Table 14: […]

Structure (SMILES)	death rate for Mythimna separata (Mythimna separata) [%]	death rate for Plutella xylostella (Plutella xylostella) [%]	Death Rate (%, 3 days after the administration of the compounds) 1.25 mg/L (Tetranychus cinnabarinus) [%]	Death Rate (%, 3 days after the administration of the compounds) 2.5 mg/L (Tetranychus cinnabarinus) [%]
Cc1cc(F)c(-c2cc([S+]([O-])CC(F)(F)F)c(C)cc2F)cc1SCC(F)(F)F (stereo not drawn) [KC2]	0	0	0	50.0
Cc1cc(F)c(-c2cc([S+]([O-])CC(F)(F)F)c(C)cc2F)cc1[S+]([O-])CC(F)(F)F (stereo not drawn) [KC3]	0	0	0	0
Cc1cc(F)c(-c2cc(SCC(F)(F)F)c(C)cc2F)cc1SCC(F)(F)F [KC1]	0	0	22.9	52.0
